Data taken from paper PMC10218704, “A Novel Blood–Brain Barrier-Penetrating and Vascular-Targeting Chimeric Peptide Inhibits Glioma Angiogenesis” (International Journal of Molecular Sciences, 2023).
Ends that are not written are not given here.

Assays:
[1] = tested on: VEGFR-2 and the above kinases (PLC-γ, ERK1/2, SRC, AKT, FAK); assay: Western blot, total expression levels; assay type: cell-based, human; conditions: 320 μmol/L; 90 min; VEGF-A165 30 ng/mL; HUVECs; n = 3
Description: (§1) For Western blotting analysis, HUVECs were seeded into 6-well culture plates at 3 × 10^5 cells/well and incubated overnight. […] Two control groups (F-12K medium in the absence or presence of VEGF-A165) were set. The cells were washed with cold PBS and lysed with lysis buffer (protease and phosphatase inhibitors) on the ice for 30 min, and then centrifuged at 4 °C for 15 min at 14,000 r/min. The supernatant was collected, and its total protein concentration was determined by the BCA protein assay kit. Equal amounts of proteins were separated by 10% SDS-PAGE gels and transferred to polyvinylidene difluoride (PVDF) membranes. After blocking with 5% non-fat milk for 1 h, the membranes were incubated with specific antibodies at 4 °C overnight. Then, the membranes were washed with TBST (Tris-Buffered Saline with 0.1% Tween 20) and incubated with horseradish peroxidase (HRP)-conjugated secondary antibody for 1 h at room temperature. The proteins on the membranes were visualized with enhanced chemiluminescence agents.

red blood cells = assay: Hemolysis assay; conditions: 2.5–640 μmol/L; 37 °C, 1 h; 540 nm; mouse red blood cells; n = 3
Description: The fresh blood of mice was centrifuged at 2000 r/min for 10 min, and the upper layer of serum was discarded, then mixed with normal saline and centrifuged at 2000 r/min for 10 min, repeated three times, and the supernatant was removed to obtain the lower layer of red blood cells. Then, 1 mL of red blood cells was diluted to 50 mL with normal saline. […] The samples were incubated at 37 °C for 1 h, centrifuged at 2000 r/min for 10 min, and photographed. Light absorption of samples was measured at 540 nm on a microplate reader.
Cell hemolysis rate (%) = (OD experimental group − negative control group)/(OD positive control group − negative control group) × 100%.

ERK1/2 = assay: Western blot, phosphorylation of ERK1/2; assay type: cell-based, human; conditions: 320 μmol/L, 90 min, VEGF-A165 30 ng/mL, HUVECs, vs control, AT7, TAT, n = 3
Description: as §1

HUVECs [2] = assay: Wound healing assay (cell migration); assay type: cell-based, human; conditions: 160 μmol/L; VEGF-A165 30 ng/mL; at 24 h or 48 h after scratch; n = 3
Description: HUVECs were firstly seeded into 6-well culture plates (3 × 10^5 cells/well). Following overnight incubation, the monolayer HUVECs were scraped by pipette tips of 200 μL and washed by cold PBS. […] The cells were incubated for another 48 h. Images were captured at 0 h, 24 h, and 48 h using an inverted microscope. The cell migration rate was counted by the ImageJ software.

[3] = Body weight and physiological status of glioma-bearing nude mice; assay type: in vivo; conditions: 20 mg/kg/day i.v., 11 days
Description: (§2) The orthotopic U87-mCherry-luc glioma-bearing nude mice were randomly assigned to 6 groups (n = 5) according to the bioluminescence intensity of glioma measured on day 4. […] The bioluminescence intensity was measured on days 4, 7, 11, and 14, respectively. Nude mice were weighed daily. On day 15, the mice were sacrificed, and the glioma-bearing brains were harvested. The brain tissues were fixed with 4.0% paraformaldehyde, embedded in paraffin, and cut into slices. The TUNEL staining and CD31 immunohistochemical staining were conducted according to standard histological procedures.

[4] = tested on: U87-mCherry-luc glioma tissue; assay: TUNEL staining of glioma tissue; assay type: in vivo, nude mice; conditions: 20 mg/kg/day i.v., 11 days; tissue at day 15; n = 3
Description: as §2

HUVECs [5] = assay: Cell proliferation assay (MTT); assay type: cell-based, human; conditions: 48 h, VEGF-A165 30 ng/mL, n = 3
Description: The anti-proliferative effect was evaluated by the MTT assay.
Briefly, HUVECs were seeded into 96-well plates (5 × 10^3 cells/well) and allowed to attach overnight. […] Then, 20 µL of MTT solution was added to each well and further cultured for 4 h under dark conditions. After removing the medium, 150 µL of DMSO was added to dissolve formazan crystals. The 96-well plates were shaken at a low speed for 10 min. The absorbance was measured at 490 nm using a Microplate Reader (Bio-Rad 680, Hercules, CA, USA).

HUVECs [6] = assay: Transwell invasion assay; assay type: cell-based, human; conditions: 160 μmol/L; VEGF-A165 30 ng/mL; 24 h; n = 3
Description: Matrigel was diluted in serum-free F-12K medium (dilution ratio 1:5) and was coated onto each transwell chamber and incubated at 37 °C for 2 h. HUVECs were seeded in the upper compartment of the transwell chamber at a density of 2 × 10^4 cells/well. F-12K medium (containing 20% serum) was added to the lower chamber. […] Then, the medium was aspirated, and the chambers were washed with PBS and placed in a fixative for 30 min, stained with 0.1% crystal violet for 30 min, washed with PBS, and dried. An inverted fluorescence microscope was used to photograph the chambers, and the number of invaded cells was counted. The cells that migrated to the bottom of the chamber were photographed with an inverted microscope.

FAK = assay: Western blot, phosphorylation of FAK; assay type: cell-based, human; conditions: 320 μmol/L, 90 min, VEGF-A165 30 ng/mL, HUVECs, vs control, AT7, TAT, n = 3
Description: as §1

AKT = assay: Western blot, phosphorylation of AKT; assay type: cell-based, human; conditions: 320 μmol/L, 90 min, VEGF-A165 30 ng/mL, HUVECs, vs control, AT7, TAT, n = 3
Description: as §1

NRP-1 = tested on: NRP-1; set-up: method as in 2 sources, ref 21 = [21]; PMID 17983687; doi:10.1016/j.peptides.2007.09.013; 21. Starzec A. Ladam P. Vassy R. Badache S. Bouchemal N. Navaza A. du Penhoat C.H. Perret G.Y. Structure-function analysis of the antiangiogenic ATWLPPR peptide inhibiting VEGF (165) binding to neurop ||| ref 36 = [36]; PMID 11327725; doi:10.1006/bbrc.2001.4790; 36. Jia H. Lohr M. Jezequel S. Davis D. Shaikh S. Selwood D. Zachary I. Cysteine-rich and basic domain HIV-1 Tat peptides inhibit angiogenesis and induce endothelial cell apoptosis Biochem. Biophys. R; conditions: C-terminal LPPR essential; cited from earlier work
[7] = tested on: VEGF-induced rabbit corneal angiogenesis; conditions: cited from earlier work
Text: Most peptides and proteins are usually functional and efficacious signaling molecules that naturally exist or are synthesized by artificial methods. Compared with proteins, peptides have higher tissue permeability, protease hydrolysis tolerability, and lower production costs. Furthermore, the pharmacological functions of peptides are easier to be improved by modification strategies, whereas their intrinsic properties are rarely affected. […] ATWLPPR (AT7), which was identified by a mutated phage lib ...

| Molecule | total expression levels of VEGFR-2 and the above kinases [1] | hemolysis (red blood cells) | hemolysis rate (red blood cells) | phosphorylation level of ERK1/2 (ERK1/2) | migration rate (HUVECs [2]) | rate of weight loss [3] | toxicity and safety in nude mice ([3]; body weight and physiological status, 14th day) | number of apoptotic cells (TUNEL) [4] | inhibition rate on HUVECs' proliferation (HUVECs [5]; 320 μmol/L, MTT, 490 nm) | inhibition of HUVECs' proliferation (HUVECs [5]; 20-320 μmol/L, MTT) | inhibition rate compared with AT7, TAT, TAT+AT7 (HUVECs [5]; concentration higher than 40 μmol/L) | invasion rate (HUVECs [6]) | phosphorylation level of FAK (FAK) | phosphorylation level of AKT (AKT) | effect on VEGF-A165 binding to NRP-1 (NRP-1) | effect on VEGF-induced rabbit corneal angiogenesis [7] |
| --- | --- | --- | --- | --- | --- | --- | --- | --- | --- | --- | --- | --- | --- | --- | --- | --- |
| CC(C)C[C@H](NC(=O)[C@H](Cc1c[nH]c2ccccc12)NC(=O)[C@@H](NC(=O)[C@H](C)NC(=O)[C@H](CS)NC(=O)[C@H](CCCNC(=N)N)NC(=O)[C@H](CCCNC(=N)N)NC(=O)[C@H](CCCNC(=N)N)NC(=O)[C@H](CCC(N)=O)NC(=O)[C@H](CCCNC(=N)N)NC(=O)[C@H](CCCNC(=N)N)NC(=O)[C@H](CCCCN)NC(=O)[C@H](CCCCN)NC(=O)[C@@H](N)CCCNC(=N)N)[C@@H](C)O)C(=O)N1CCC[C@H]1C(=O)N1CCC[C@H]1C(=O)N[C@@H](CCCNC(=N)N)C(=O)O [TAT-AT7] | no significant effect on the total expression levels | did not cause obvious hemolysis | lower than 5% | significantly inhibited the phosphorylation level | significantly lower than that of the control, AT7, TAT, and TAT+AT7 groups | slower than that in the normal saline group | less toxicity and better safety for nude mice | significantly higher than that in the saline, AT7, TAT, and TAT+AT7 groups | more than 50% | significantly inhibit proliferation of HUVECs in a concentration-dependent manner | significantly higher than that of the AT7, TAT, and TAT+AT7 groups | significantly lower than that of the other groups | significantly inhibited the phosphorylation level | significantly inhibited the phosphorylation level | – | – |
| ATWLPPR [AT7, ATWLPPR] | – | – | – | – | – | – | – | – | – | – | – | – | – | – | inhibitory effect of AT7 on VEGF-A165 binding to NRP-1 | inhibitory effect on VEGF-induced rabbit corneal angiogenesis |
